# In PubChem BioAssay (NCI):
# Values joined by “and” are separate entries in the source; they are usually repeats but may differ in a detail not shown here. Identical values can stand only once.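 Assay format: 96-well plates, 48-hour exposure. GI50: concentration for 50% inhibition of growth. TGI denotes the concentration required for complete inhibition of growth.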
# Assays:
# Assay in all cases: NCI tumour cell line growth inhibition, 48 h
# DLD-1 colon = tested on: DLD-1 colon
# DMS 114 small cell lung = tested on: DMS 114 small cell lung
# DMS 273 small cell lung = tested on: DMS 273 small cell lung
# HOP-18 NSCLC = tested on: HOP-18 NSCLC
# HOP-92 NSCLC = tested on: HOP-92 NSCLC
# HT29 colon = tested on: HT29 colon
# KM12 colon = tested on: KM12 colon
# KM20L2 colon = tested on: KM20L2 colon
# LXFL 529 NSCLC = tested on: LXFL 529 NSCLC
# M19-MEL melanoma = tested on: M19-MEL melanoma
# NCI-H226 lung = tested on: NCI-H226 lung
# XF 498 CNS = tested on: XF 498 CNS
# RXF-631 renal = tested on: RXF-631 renal
# SNB-78 CNS = tested on: SNB-78 CNS
# P388/ADR leukemia = tested on: P388/ADR leukemia
# SN12K1 renal = tested on: SN12K1 renal
Compound,TGI (DLD-1 colon) [µM],TGI (DMS 114 small cell lung) [µM],TGI (DMS 273 small cell lung) [µM],TGI (HOP-18 NSCLC) [µM],TGI (HOP-92 NSCLC) [µM],TGI (HT29 colon) [µM],TGI (KM12 colon) [µM],TGI (KM20L2 colon) [µM],TGI (LXFL 529 NSCLC) [µM],TGI (M19-MEL melanoma) [µM],TGI (NCI-H226 lung) [µM],TGI (XF 498 CNS) [µM],TGI (RXF-631 renal) [µM],GI50 (HOP-92 NSCLC),GI50 (KM20L2 colon),TGI (SNB-78 CNS) [µM],TGI (P388/ADR leukemia) [µM],TGI (SN12K1 renal) [µM]
C/C(=C\CC/C=C(\C)CC/C=C(\C)CCC1SC1(C)C)CC/C=C(\C)CCC1OC1(C)C (stereo unspecified),> 100,> 100,> 100,> 100,> 100,> 100,> 100,> 100,> 100,> 100,> 100,> 100,,,,,,
CC(=O)OCC1=CC2CCC3C(C)(CCC[C@]3(C)COC(C)=O)C23CC[C@H]1C3 (stereo partly specified),> 100,44.3,> 100,> 100,90.2,> 100,> 100,> 100,> 100,> 100,> 100,81.9,> 100,,,,,
Cc1cc(C)c(C(=O)C(C)C(c2ccccc2)c2ccc(Cl)cc2)c(C)c1 (stereo unspecified),> 100,> 100,,> 100,> 100,> 100,> 100,> 100,> 100,> 100,> 100,> 100,> 100,47.4 µM and > 100 µM,> 100 µM and 47.2 µM,,,
CC1OC(CC2C=CCc3c(O)c4c(c(O)c32)C(=O)c2ccccc2C4=O)CC(NC(=O)C(F)(F)F)C1O (stereo unspecified),20,26.8,19.7,,8.39,40.5,61.4,55.3,20.4,21.1,31.6,14.6,,,,14.9,,
CCCCCCCCCCCCCCCCCCOCC(O)CO (stereo unspecified),> 25,> 25,> 7.73,> 2.5,24.7,> 15.8,> 25,> 25,,24.6,> 24.2,> 25,,,,> 25,> 25,> 25
COC1(C)CNCC(C)(C)NC(=O)C(C)(OC)CNCC(C)(C)NC1=O (stereo unspecified),> 100,> 100,> 100,> 100,> 100,> 100,> 100,> 100,> 100,> 100,> 100,,> 100,,,> 100,,
CCOC(OC1=C(C#N)CCCC1)C(CC)[Se]c1ccccc1[N+](=O)[O-] (stereo unspecified),35.6,30.1,36.2,74.1,40.6,31.4,43.1,31.4,89.2,37.2,43,61.5,,,,> 100,,
CC(=O)OCC1OC(n2c(O)c(N=NC(N)=S)c3ccc([N+](=O)[O-])cc32)C(OC(C)=O)C1OC(C)=O (stereo unspecified),> 100,61.9,57.5,> 100,> 100,96.2,> 100,> 100,> 100,38.3,84.7,94.7,,,,> 100,,
COC(=O)/C(=N\N)C(C(=O)C(=O)Nc1nc(=S)[nH][nH]1)c1nc2ccc([N+](=O)[O-])cc2[nH]c1=O (stereo unspecified),> 100,> 100,> 100,> 100,> 100,> 100,> 100,> 100,> 100,> 100,> 100,,> 100,,,> 100,,
COC(=O)C(C#N)C1NC(=O)c2ccccc21 (stereo unspecified),> 100,> 100,> 100,> 100,> 100,> 100,> 100,> 100,,> 100,> 100,,> 100,,,> 100,,
O=C(NCc1ccccc1)C1C(=O)C(=O)N(Cc2ccccc2)C1=O (stereo unspecified),> 100,,> 100,> 100,> 100,> 100,> 100,> 100,> 100,> 100,> 100,,> 100,,,> 100,,
C/C=C1/C(=Cc2[nH]c(C=c3[nH]/c(=C/C4=NC(=O)C(CC)=C4C)c(C)c3CCC(=O)O)c(CCC(=O)O)c2C)NC(=O)C1C (stereo unspecified),> 50,> 50,37.1,> 50,15.9,49,> 50,> 50,> 50,41.6,10.8,17.5,> 50,,,> 50,,
COc1cc2cnc3c4cc(OC)c(OC(C)C)cc4ccc3c2cc1OC,> 100,> 100,> 100,> 100,> 100,> 100,> 100,> 100,> 100,> 100,> 100,,> 100,,,> 100,,
CN1C(=O)N(c2nc3ccccc3[nH]2)C(C)(C)C1=O,> 100,> 100,> 100,> 100,,> 100,> 100,> 100,> 100,> 100,> 100,> 100,,,,> 100,,
C/C(=N/N)c1sc(-c2nc(C)c(/C(C)=N\N)s2)nc1C,> 100,> 63.8,> 58.8,> 100,> 100,> 100,> 100,> 100,> 100,> 100,> 100,> 100,,,,> 100,,
COc1cc2c(cc1OC)[C@H]1C(COC(=O)Nc3ccccc3)CN1CC2 (stereo partly specified),> 100,,> 100,> 100,> 100,> 100,> 100,,> 100,> 100,,,,,,,,
